According to US20250304571A1, “BIOLOGICALLY ACTIVE COMPOUNDS AND METHODS THEREOF” (Suzhou Keen Therapeutics Co., Ltd., priority 2022, published 2025):
Like-named read-outs stand apart in the source and are kept apart here.

Test system: 786-O (renal cell carcinoma) cells
Test: Cell viability (CellTiter Glo) assay, inhibition of 786-O cell proliferation
Type: cell-based
Conditions: read-out: IC50, inhibition of 786-O cell proliferation
[1] = Homo sapiens, 786-0, 786-O cells, 72 hours, CellTiter Glo

SMILES	IC50 [1] [µM]	other results
[2H]C([2H])([2H])Nc1nc(COC(=N)N2CCC[C@@H]2C(F)(F)F)nc2c1C(C)(C)C(=O)N2c1ccc(N2C[C@@H](C)O[C@@H](C)C2)nc1 [Compound E187, (7-(6-((2S,6R)-2,6-Dimethylmorpholino)pyridin-3-yl)-5,5-dimethyl-4-((methyl-d3)amino)-6-oxo-6,7-dihydro-5H-pyrrolo[2,3-d]pyrimidin-2-yl)methyl (R)-2-(trifluoromethyl)pyrrolidine-1-carbimidate]	0.1 to 0.5	–
C[C@@H]1CN(c2ccc(N3C(=O)C(C)(C)c4c(NC5CC5)nc(COC(=N)N5CCC[C@@H]5C(F)(F)F)nc43)cn2)C[C@H](C)O1 [Compound E188, (4-(Cyclopropylamino)-7-(6-((2S,6R)-2,6-dimethylmorpholino)pyridin-3-yl)-5,5-dimethyl-6-oxo-6,7-dihydro-5H-pyrrolo[2,3-d]pyrimidin-2-yl)methyl (R)-2-(trifluoromethyl)pyrrolidine-1-carbimidate]	< 0.1	–
C[C@@H]1CN(c2ccc(N3C(=O)C(C)(C)c4c(N)nc(COC(=N)N(C)CC(F)(F)F)nc43)cn2)C[C@H](C)O1 [Compound E189, (4-amino-7-(6-((2R,6S)-2,6-dimethylmorpholino)pyridin-3-yl)-5,5-dimethyl-6-oxo-6,7-dihydro-5H-pyrrolo[2,3-d]pyrimidin-2-yl)methyl methyl(2,2,2-trifluoroethyl)carbamimidate]	0.1 to 0.5	–
CCN(CC(F)(F)F)C(=N)OCc1nc(N)c2c(n1)N(c1ccc(N3C[C@@H](C)O[C@@H](C)C3)nc1)C(=O)C2(C)C [Compound E190]	0.1 to 0.5	–
CC(C)N(CC(F)(F)F)C(=N)OCc1nc(N)c2c(n1)N(c1ccc(N3C[C@@H](C)O[C@@H](C)C3)nc1)C(=O)C2(C)C [Compound E191]	0.1 to 0.5	–
C#CCN(CC(F)(F)F)C(=N)OCc1nc(N)c2c(n1)N(c1ccc(N3C[C@@H](C)O[C@@H](C)C3)nc1)C(=O)C2(C)C [Compound E192]	0.1 to 0.5	–
C[C@@H]1CN(c2ccc(N3C(=O)C(C)(C)c4c(N)nc(COC(=N)N(CC(F)(F)F)C5CC5)nc43)cn2)C[C@H](C)O1 [Compound E193]	0.1 to 0.5	–
CNc1nc(COC(=N)N2CCC[C@@H]2C(F)(F)F)nc2c(-c3ccc(N4C[C@@H](C)O[C@@H](C)C4)nc3)coc12 [Compound E194]	0.1 to 0.5	–
C[C@@H]1CN(c2ccc(N3C(=O)C(C)(C)c4c(N)nc(COC(=N)N5CC(F)(F)C(F)(F)C5)nc43)cn2)C[C@H](C)O1 [Compound E195]	0.1 to 0.5	–
CC1(C)C(=O)N(c2ccc(N3CCOCC3)cc2)c2nc(COC(=N)N3CCC[C@@H]3C(F)(F)F)nc(NCC(F)F)c21 [Compound E197]	< 0.1	–
N=C(OCc1nc(NC2CC2)c2c(n1)N(c1ccc(N3CCOCC3)c(F)c1)C(=O)C21CCCC1)N1CCC[C@@H]1C(F)(F)F [Compound E198]	< 0.1	–
N=C(OCc1nc(C(F)F)c2c(n1)N(c1ccc(N3CCOCC3)cc1)C(=O)C21CCCC1)N1CCC[C@@H]1C(F)(F)F [Compound E199]	0.5 to 5	–
CC1(C)C(=O)N(c2ccc(N3CCOCC3)c(F)c2)c2nc(COC(=N)N3CCC[C@@H]3C(F)(F)F)nc(NC3CC3)c21 [Compound E200]	< 0.1	–
CCCNc1nc(COC(=N)N2CCC[C@@H]2C(F)(F)F)nc2c1C(C)(C)C(=O)N2c1ccc(N2CCOCC2)cc1 [Compound E201]	< 0.1	–
N=C(OCc1nc2c(c(C(F)(F)F)n1)C1(CCCC1)C(=O)N2c1ccc(N2CCOCC2)cc1)N1CCC[C@@H]1C(F)(F)F [Compound E202]	0.5 to 5	–
C[C@@H]1CN(c2ccc(N3C(=O)C(C)(C)c4c(NCC(F)F)nc(COC(=N)N5CCC[C@@H]5C(F)(F)F)nc43)cc2)C[C@H](C)O1 [Compound E203]	–	IC50 (Homo sapiens, 786-0, 72 h): 0.1 to 0.5 µM
N=C(OCc1nc(NC2CC2)c2c(n1)N(c1cnc(N3CCCCC3)nc1)C(=O)C21CCCC1)N1CCC[C@@H]1C(F)(F)F [Compound E204]	< 0.1	–
N=C(OCc1nc(NC2CC2)c2c(n1)N(c1ccc(F)c(F)c1)C(=O)C21CCCC1)N1CCC[C@@H]1C(F)(F)F [Compound E205]	< 0.1	–
N=C(OCc1nc(NC2CC2)c2c(n1)N(c1cc(F)cc(F)c1)C(=O)C21CCCC1)N1CCC[C@@H]1C(F)(F)F [Compound E206]	–	IC50 (786-O cells, 72 hours, CellTiter Glo): 0.1 to 0.5 µM
COc1cc(F)ccc1N1CC(C)(C)c2c(NC3CC3)nc(COC(=N)N3CCC[C@@H]3C(F)(F)F)nc21 [Compound E207]	< 0.1	–

SMILES	IC50 [1] [µM]	other results
COc1cc(F)ccc1N1CC(C)(C)c2c(NCC(F)(F)F)nc(COC(=N)N3CCC[C@@H]3C(F)(F)F)nc21 [Compound E208]	< 0.1	–
N=C(OCc1nc(N)c2c(n1)N(c1ccc(F)c(F)c1)C(=O)C21CCCC1)N1CCC[C@@H]1C(F)(F)F [Compound E209]	< 0.1	–
CC(C)Nc1nc(COC(=N)N2CCC[C@@H]2C(F)(F)F)nc2c1C1(CCCC1)C(=O)N2c1cnc(N2CCCCC2)nc1 [Compound E211]	–	IC50 (Homo sapiens, 786-0, 72 h): < 0.1 µM
CC(C)Nc1nc(COC(=N)N2CCC[C@@H]2C(F)(F)F)nc2c1C1(CCCC1)C(=O)N2c1ccc(F)c(F)c1 [Compound E212]	–	IC50 (Homo sapiens, 786-0, 72 h): < 0.1 µM
CS(=O)(=O)c1ccc(N2C(=O)C3(CCCC3)c3c(N)nc(COC(=N)N4CCC[C@@H]4C(F)(F)F)nc32)cc1 [Compound E213]	0.1 to 0.5	–
C[C@@H]1CN(c2ccc(N3C(=O)C4(CCCC4)c4c(N)nc(COC(=N)N5CCC[C@@H]5C(F)(F)F)nc43)cc2F)C[C@H](C)O1 [Compound E214]	< 0.1	–
CNc1nc(COC(=N)N2CCC[C@@H]2C(F)(F)F)nc2c1C1(CCCC1)C(=O)N2c1cnc(C2CC2)nc1 [Compound E215]	0.1 to 0.5	–
CNc1nc(COC(=N)N2CCOCC2C(F)(F)F)nc2c1C(C)(C)C(=O)N2c1cnc(N2CCC(F)(F)C2)nc1 (stereo not shown) [Compound E216]	0.1 to 0.5	–
CNc1nc(COC(=N)N2CCC[C@@H]2C(F)(F)F)nc2c1C(C)(C)C(=O)N2c1cnc(N2C[C@@H](C)O[C@@H](C)C2)nc1 [Compound E217]	< 0.1	–
CNc1nc(COC(=N)N2CCOCC2C(F)(F)F)nc2c1C(C)(C)C(=O)N2c1cnc(N2C[C@@H](C)O[C@@H](C)C2)nc1 (stereo partly shown) [Compound E218]	0.5 to 5	–
C[C@@H]1CN(c2ncc(N3C(=O)C(C)(C)c4c(NC5CCC5)nc(COC(=N)N5CCOCC5C(F)(F)F)nc43)cn2)C[C@H](C)O1 (stereo partly shown) [Compound E219]	0.1 to 0.5	–
CC1(C)C(=O)N(c2cnc(N3CCC(F)(F)C3)nc2)c2nc(COC(=N)N3CCOCC3C(F)(F)F)nc(NC3CCC3)c21 (stereo not shown) [Compound E220]	0.1 to 0.5	–
Cn1c(OCc2nc(N)nc(Nc3ccc(Oc4ccccc4)cc3)n2)nc(Br)c1Br [Compound F2]	> 5	–
CC(C)N(CC(F)(F)F)C(=N)OCc1nc(N)nc(Nc2ccc(Oc3ccccc3)cc2)n1 [Compound F8]	–	IC50 (Homo sapiens, 786-0, 72 h): < 0.1 µM
[2H]C([2H])(OC(=N)N1CCC(F)(F)CC1)c1nc(N)nc(Nc2ccc(Oc3ccccc3)cc2)n1 [Compound F10]	< 0.1	–
N=C(OCc1nc(N)nc(Nc2ccc(Oc3ccccc3)cc2)n1)N(C1CCCCC1)C1CC1 [Compound F14]	–	IC50 (Homo sapiens, 786-0, 72 h): < 0.1 µM
CC1(NC(=N)OCc2nc(N)nc(Nc3ccc(Oc4ccccc4)cc3)n2)CCCCC1 [Compound F15]	0.1 to 0.5	–
CCN(CC)C(=N)OCc1nc(N)nc(Nc2ccc(Oc3ccccc3)cc2)n1 [Compound F17]	0.1 to 0.5	–
CC1(NC(=N)OCc2nc(N)nc(Nc3ccc(Oc4ccccc4)cc3)n2)CC1 [Compound F28]	0.1 to 0.5	–
CN(C(=N)OCc1nc(N)nc(Nc2ccc(Oc3ccccc3)cc2)n1)c1ccccc1 [Compound F29]	–	IC50 (Homo sapiens, 786-0, 72 h): < 0.1 µM
